{"source": "patent US20220000893A1", "about": "“METHOD FOR TREATING T-HELPER TYPE 2 MEDIATED DISEASE” (|NSERM (INSTITUT NATIONAL DE LA SANTÉ ET DE LA RECHERCHE …, priority 2018, published 2022)", "system": "differentiating wild-type Th2 cells", "experiment": "Th2 cell differentiation and commitment in Th2-polarizing culture with non-specific SETDB1 inhibitors; cytokine production by intracellular staining and flow cytometry", "settings": "naïve CD4 T cells, 6 days in Th2-polarizing conditions; 100 nM Mithramycine A for first 4 hours, 1 nM DZNep for first 24 hours; no pro-Th1 signal; vs DMSO; PMA/Ionomycine restimulation", "protocol": "At the end of the culture, cytokine production was assessed by flow cytometry following T cell restimulation with PMA/Ionomycine in the presence of Monensin and intracellular staining.\nSpleen and lymph nodes (mesenteric, inguinal, axillary, brachial and cervical) were collected and digested with Liberase TM and DNAse I (Sigma). Single-cell suspensions were then pooled and depleted of erythrocytes by osmotic shock (Red Blood Cell Lysis buffer, Sigma). […] Naïve CD4 T cells, defined as CD4+CD25-CD62LhighCD44low, were labeled with fluorochrome-conjugated monoclonal antibodies specific for CD4 (GK1.5, BD Biosciences), CD25 (PC61, BD Biosciences), CD62L (MEL14, Thermo Fischer Scientific) and CD44 (IM7, BD Biosciences), and purified from the enriched fraction of CD4 T cells by fluorescence-activated cell sorting (FACS Aria, BD Biosciences). […]\nFor intracellular cytokine staining, cells were first stimulated at 37° C. with 20 ng/mL phorbol 12-myristate 13-acetate (Millipore) and 1 μg/mL ionomycin (Millipore) for 5 hours in the presence of GolgiStop™ (BD Biosciences). […] Flow cytometry was performed by using a LSRII Fortessa cytometer (BD Biosciences) or MACSQuant analyzer 10 (Myltenyi) and the data were analyzed by using FlowJo software (Tree Star). […]", "data": [{"smiles": "Nc1nccc2c1ncn2[C@@H]1C=C(CO)[C@@H](O)[C@H]1O", "note": "[DZNEP, 3-Deazaneplanocin A]", "values": [{"measurement": "IFN-γ production by Th2 cells (frequency of IFNg-producing cells)", "value": "start to produce pro-Th1 factor, in particular IFN-γ"}]}]}
